From US20250090520A1, “DERIVATIVES OF TURBINMICIN AS ANTIFUNGAL AGENTS” (Wisconsin Alumni Research Foundation, priority 2021, published 2025) come the findings set out here.

Broadly, the MIC is the smallest concentration in the dilution series that meets the test's criterion for growth inhibition.

The subject of test [1] is four Candida isolates, C. albicans K-1, C. tropicalis 98-234, C. auris B 11211, and C. glabrata 4720. Kind of test: In vitro MIC susceptibility testing, positive control over the isolates. The format is cell-based. To be noted: RPMI medium, 33° C., 24 hours. The method, then:
(§1) In vitro MIC susceptibility testing. Turbinmicin analogs of the present disclosure were tested for antifungal activity against four Candida isolates, C. albicans K-1, C. tropicalis 98-234, C. auris B 11211, and C. glabrata 4720, and MICs were determined using a broth microdilution method for yeasts. A turbinmicin analog was dissolved in DMSO, serially diluted to 10 concentrations (0.125-64 μg/mL), and tested in a 96-well plate in RPMI medium. Amphotericin B was used as a positive control and the MICs range were 0.25-1.5 μg/mL. Six untreated media controls were included on each plate. The plates were incubated at 33° C. for 24 hours. The MICs were determined as the lowest concentration that inhibited visible growth. The MICs were read at 24. Results are shown in Table 1 for turbinmicin analog activity against various fungi, including drug-resistant fungi.

Test [2] concerns C. auris B 11211. Put plainly: In vitro MIC susceptibility testing, broth microdilution. The format is cell-based, Candida auris. To be noted: for MIC: Candidozyma auris, read-out: MIC C. auris B11211. The procedure:
as §1, with “Amphotericin B was used as a positive control and the MICs range were 0.25-1.5 μg/mL.” left out, “24.” for “24. Results are shown in Table 1 for turbinmicin analog activity against various fungi, including drug-resistant fungi.”
A general note: Broth dilution looks for growth in wells or tubes with falling amounts of substance.

Test [3] deals with C. glabrata 4720. Described as above. To be noted: for MIC: read-out: MIC C. glabrata 4720. The format is cell-based, Candida glabrata. The procedure:
(§2) In vitro MIC susceptibility testing. […] Six untreated media controls were included on each plate. The plates were incubated at 33° C. for 24 hours. The MICs were determined as the lowest concentration that inhibited visible growth. The MICs were read at 24.

For test [4], the system named is C. tropicalis 98-234. The description is as above. To be noted: for MIC: read-out: MIC C. tropicalis 98-234. It counts as cell-based, Candida tropicalis. The procedure:
as §2

In test [5] the test system is C. albicans K-1. The description is as above. The format is cell-based, Candida albicans. To be noted: for MIC: Candida albicans, read-out: MIC C. albicans K-1. The procedure: as §2
The mark [6] stands for this setting: Nakaseomyces glabratus, 4720, 24 h.
[7] abbreviates: Candida tropicalis, 98234, 24 h.
Setting [8] is: B11211, multidrug-resistant clinical isolate, RPMI medium, 33° C., 24 hours, lowest concentration that inhibited visible growth.
Where [9] appears, read: Nakaseomyces glabratus, 4720, RPMI medium, 33° C., 24 hours, lowest concentration that inhibited visible growth.
The mark [10] stands for this setting: Candida tropicalis, 98234, RPMI medium, 33° C., 24 hours, lowest concentration that inhibited visible growth.
The mark [11] stands for this setting: K1, RPMI medium, 33° C., 24 hours, lowest concentration that inhibited visible growth.
[12] abbreviates: RPMI medium, 33° C., 24 hours, lowest concentration that inhibited visible growth.

Values after ≈ are worked out from the molar mass of the structure shown. Like-named read-outs stand apart in the source and are kept apart here. Bounds are passed on as bounds.

As for `C[C@@H]1[C@H](O)[C@@H](C)/C=C/C=C/C=C/C=C/C=C/C=C/C=C/[C@H](O[C@@H]2O[C@H](C)[C@@H](O)[C@H](N)[C@@H]2O)C[C@@H]2O[C@](O)(C[C@@H](O)C[C@@H](O)[C@H](O)CC[C@@H](O)C[C@@H](O)CC(=O)O[C@H]1C)C[C@H](O)[C@H]2C(=O)O` [Amphotericin B], the “MICs range (positive control)” value in test [1] lay within 0.25 to 1.5 µg/mL.

Consider `C=CC/N=C1/c2c(O)c3c4c(c2O[C@@H]2[C@H](OC(=O)/C=C/C=C/C=C/C)C=CC[C@@H]12)OCO[C@@H]4C[C@@H]1C(=O)c2cc(C)[nH]c(=O)c2C(=O)[C@]31O` [Compound T5], for which the MIC in test [2] (B11211, 24 h) turned out to be 2 µg/mL (≈ 3 µM); in test [3] (setting [6]), 4 µg/mL (≈ 6 µM); in test [4] (setting [7]), 4 µg/mL (≈ 6 µM); in test [5] (K1, 24 h), 2 µg/mL (≈ 3 µM).

`C/C=C/C=C/C=C/C(=O)O[C@@H]1C=CC[C@H]2/C(=N/CCCC)c3c(O)c4c5c(c3O[C@H]12)OCO[C@@H]5C[C@@H]1C(=O)c2cc(C)[nH]c(=O)c2C(=O)[C@]41O` [Compound T6]: the minimal inhibitory concentration (MIC) in test [2] (setting [8]), in test [3] (setting [9]), in test [4] (setting [10]) and in test [5] (setting [11]) was over 4 µg/mL throughout.

Regarding `C/C=C/C=C/C=C/C(=O)O[C@@H]1C=CC[C@H]2/C(=N/CCO)c3c(O)c4c5c(c3O[C@H]12)OCO[C@@H]5C[C@@H]1C(=O)c2cc(C)[nH]c(=O)c2C(=O)[C@]41O` [Compound T7], the MIC in test [2] (B11211, 24 h) is over 4 µg/mL; in test [3] (setting [6]), over 4 µg/mL; in test [4] (setting [7]), over 4 µg/mL; in test [5] (K1, 24 h) it was over 4 µg/mL.

Regarding `C/C=C/C=C/C=C/C(=O)O[C@@H]1C=CC[C@H]2/C(=N/CCN(C)C)c3c(O)c4c5c(c3O[C@H]12)OCO[C@@H]5C[C@@H]1C(=O)c2cc(C)[nH]c(=O)c2C(=O)[C@]41O` [Compound T8], the MIC was 0.25 µg/mL (≈ 0.358 µM) in test [2] (B11211, 24 h); 0.25 µg/mL (≈ 0.358 µM) in test [3] (setting [6]); 0.13 µg/mL (≈ 0.186 µM) in test [4] (setting [7]); 0.13 µg/mL (≈ 0.186 µM) in test [5] (K1, 24 h).

For `C/C=C/C=C/C=C/C(=O)O[C@@H]1C=CC[C@H]2/C(=N/Cc3ccccc3)c3c(O)c4c5c(c3O[C@H]12)OCO[C@@H]5C[C@@H]1C(=O)c2cc(C)[nH]c(=O)c2C(=O)[C@]41O` [Compound T10], the MIC in test [2] (setting [8]) amounted to 4 µg/mL (≈ 5.58 µM); in test [3] (setting [9]) it was 1 µg/mL (≈ 1.4 µM); in test [4] (setting [10]), 4 µg/mL (≈ 5.58 µM); in test [5] (setting [11]), 2 µg/mL (≈ 2.79 µM).

Consider `C/C=C/C=C/C=C/C(=O)O[C@@H]1C=CC[C@H]2/C(=N/C)c3c(O)c4c5c(c3O[C@H]12)OCO[C@@H]5C[C@@H]1C(=O)c2cc(C)[nH]c(=O)c2C(=O)[C@]41O` [Compound T12], for which the minimum inhibitory concentration (MIC) in test [2] (B11211, 24 h) was over 4 µg/mL; in test [3] (setting [6]), 0.5 µg/mL (≈ 0.78 µM); in test [4] (setting [7]), 1 µg/mL (≈ 1.56 µM); in test [5] (K1, 24 h), 1 µg/mL (≈ 1.56 µM).

`C/C=C/C=C/C=C/C(=O)O[C@@H]1C=CC[C@H]2/C(=N/CCc3ccccn3)c3c(O)c4c5c(c3O[C@H]12)OCO[C@@H]5C[C@@H]1C(=O)c2cc(C)[nH]c(=O)c2C(=O)[C@]41O` [Compound T13]: the minimum inhibitory concentration (MIC) is over 4 µg/mL in test [2] (B11211, 24 h); over 4 µg/mL in test [3] (setting [6]); over 4 µg/mL in test [4] (setting [7]); over 4 µg/mL in test [5] (K1, 24 h).

Consider `C#CC/N=C1\c2c(O)c3c4c(c2O[C@@H]2[C@H](OC(=O)/C=C/C=C/C=C/C)C=CC[C@@H]12)OCO[C@@H]4C[C@@H]1C(=O)c2cc(C)[nH]c(=O)c2C(=O)[C@]31O` [Compound T15], for which the MIC in test [2] (B11211, 24 h) is over 4 µg/mL; in test [3] (setting [6]), over 4 µg/mL; in test [4] (setting [7]) it was over 4 µg/mL; in test [5] (K1, 24 h), over 4 µg/mL.

`C/C=C/C=C/C=C/C(=O)O[C@@H]1C=CC[C@H]2C(=NCCCNC)c3c(O)c4c5c(c3O[C@H]12)OCO[C@@H]5C[C@@H]1C(=O)c2cc(C)[nH]c(=O)c2C(=O)[C@]41O` [Compound T18]: the MIC amounted to 0.38 µg/mL (≈ 0.545 µM) in test [2] (B11211, 24 h); 0.5 µg/mL (≈ 0.717 µM) in test [3] (setting [6]); 0.75 µg/mL (≈ 1.07 µM) in test [4] (setting [7]); 1 µg/mL (≈ 1.43 µM) in test [5] (K1, 24 h).

`C/C=C/C=C/C=C/C(=O)O[C@@H]1C=CC[C@H]2C(=NCCN3CCCC3)c3c(O)c4c5c(c3O[C@H]12)OCO[C@@H]5C[C@@H]1C(=O)c2cc(C)[nH]c(=O)c2C(=O)[C@]41O` [Compound T19]: the MIC in test [2] (B11211, 24 h) worked out at 0.25 µg/mL (≈ 0.345 µM); in test [3] (setting [6]), 0.5 µg/mL (≈ 0.691 µM); in test [4] (setting [7]), 0.38 µg/mL (≈ 0.525 µM); in test [5] (K1, 24 h), 0.5 µg/mL (≈ 0.691 µM).

As for `C/C=C/C=C/C=C/C(=O)O[C@@H]1C=CC[C@H]2/C(=N/CCN3CCCCC3)c3c(O)c4c5c(c3O[C@H]12)OCO[C@@H]5C[C@@H]1C(=O)c2cc(C)[nH]c(=O)c2C(=O)[C@]41O` [Compound T21], the MIC in test [2] (B11211, 24 h) stood at 0.06 µg/mL (≈ 0.0813 µM); in test [3] (setting [6]) it was 0.25 µg/mL (≈ 0.339 µM); in test [4] (setting [7]), 0.25 µg/mL (≈ 0.339 µM); in test [5] (K1, 24 h), 0.25 µg/mL (≈ 0.339 µM).

Take `C/C=C/C=C/C=C/C(=O)O[C@@H]1C=CC[C@H]2C(=NCCCN3CCOCC3)c3c(O)c4c5c(c3O[C@H]12)OCO[C@@H]5C[C@@H]1C(=O)c2cc(C)[nH]c(=O)c2C(=O)[C@]41O` [Compound T23]: the MIC came to 0.63 µg/mL (≈ 0.836 µM) in test [2] (setting [8]), 1 µg/mL (≈ 1.33 µM) in test [3] (setting [9]), 1 µg/mL (≈ 1.33 µM) in test [4] (setting [10]) and 1 µg/mL (≈ 1.33 µM) in test [5] (setting [11]).

For the molecule `C/C=C/C=C/C=C/C(=O)O[C@@H]1C=CC[C@H]2C(=NCCN3CCS(=O)(=O)CC3)c3c(O)c4c5c(c3O[C@H]12)OCO[C@@H]5C[C@@H]1C(=O)c2cc(C)[nH]c(=O)c2C(=O)[C@]41O` [Compound T24], the MIC was 0.28 µg/mL (≈ 0.355 µM) in test [2] (B11211, 24 h); 1 µg/mL (≈ 1.27 µM) in test [3] (setting [6]); 1 µg/mL (≈ 1.27 µM) in test [4] (setting [7]); 0.75 µg/mL (≈ 0.952 µM) in test [5] (K1, 24 h).

Regarding `C/C=C/C=C/C=C/C(=O)O[C@@H]1C=CC[C@H]2/C(=N\C(C)CN3CCOCC3)c3c(O)c4c5c(c3O[C@H]12)OCO[C@@H]5C[C@@H]1C(=O)c2cc(C)[nH]c(=O)c2C(=O)[C@]41O` (stereo partly drawn) [Compound T25], the MIC in test [2] (B11211, 24 h) worked out at 0.25 µg/mL (≈ 0.332 µM); in test [3] (setting [6]), 0.5 µg/mL (≈ 0.663 µM); in test [4] (setting [7]), 1 µg/mL (≈ 1.33 µM); in test [5] (K1, 24 h) it was 0.5 µg/mL (≈ 0.663 µM).

On to `C/C=C/C=C/C=C/C(=O)O[C@@H]1C=CC[C@H]2C(=NCCN3CCN(C)CC3)c3c(O)c4c5c(c3O[C@H]12)OCO[C@@H]5C[C@@H]1C(=O)c2cc(C)[nH]c(=O)c2C(=O)[C@]41O` [Compound T26], for which the MIC turned out to be 0.03 µg/mL (≈ 0.0399 µM) in test [2] (setting [8]), 0.5 µg/mL (≈ 0.664 µM) in test [3] (setting [9]), 0.05 µg/mL (≈ 0.0664 µM) in test [4] (setting [10]) and 0.5 µg/mL (≈ 0.664 µM) in test [5] (setting [11]).

As to `C/C=C/C=C/C=C/C(=O)O[C@@H]1C=CC[C@H]2C(=NCCCCCN3CCOCC3)c3c(O)c4c5c(c3O[C@H]12)OCO[C@@H]5C[C@@H]1C(=O)c2cc(C)[nH]c(=O)c2C(=O)[C@]41O` [Compound T27], the MIC in test [2] (B11211, 24 h) was 0.5 µg/mL (≈ 0.64 µM); in test [3] (setting [6]), 1 µg/mL (≈ 1.28 µM); in test [4] (setting [7]) it was 2 µg/mL (≈ 2.56 µM); in test [5] (K1, 24 h), 1 µg/mL (≈ 1.28 µM).

Consider Turbinmicin [reference compound], for which the “MIC C. auris B11211” value in test [2] (multidrug-resistant clinical isolate, RPMI medium, 33° C., 24 hours, lowest concentration that inhibited visible growth) stood at 0.05 µg/mL. Besides, in test [3] (setting [12]), the “MIC C. glabrata 4720” value came out at 0.13 µg/mL. The “MIC C. tropicalis 98-234” value in test [4] (setting [12]) amounted to 0.25 µg/mL. Moreover, in test [5] (setting [12]), the “MIC C. albicans K-1” value was found to be 0.06 µg/mL.
